What was measured:
CYP3A4 = CYP3A4 (Homo sapiens, UniProt P08684); settings: 10 min, pH 7.4
Description: (§1) In Vitro Inhibition of Human Cytochrome P45 Enzymes
(§2) Solution A: NADPH-Regenerating System
(§3) To a glass tube on ice were added sequentially: Water (8 mL) in NADP+ (20 mg), glucose-6-phosphate (20 mg), magnesium chloride hexahydrate (13.3 mg) and glucose-6-phosphate dehydrogenase (60 units).
To a glass tube on ice were added sequentially: 0.5 M KH2PO4 (pH 7.4, 9.6 mL), water (2.328 mL), CYP3A4 (60 μL of 1 picomol/microliter), and dibenzylfluorescein (2 mM in 100% acetonitrile, 12 microliter).
Solution A was transferred to a 96-well black plate (80 microliter per well), followed by various concentrations of a solution of Compound in 20% acetonitrile-water (20 microliter per well). The reaction was initiated by adding 100 microliter of solution B to each well of the 96-well plate. The plate was incubated for 10 minutes at 37° C. in the dark. […] The end point was measured in a fluorometer plate reader at λex=485 nm and λem=538 nm.

CYP2C9 = CYP2C9 (Homo sapiens, UniProt P11712); experiment: In vitro inhibition of human cytochrome P450 enzymes: CYP2C9 (dibenzylfluorescein fluorometric assay)
CYP2C9, sequence (P11712 whole entry): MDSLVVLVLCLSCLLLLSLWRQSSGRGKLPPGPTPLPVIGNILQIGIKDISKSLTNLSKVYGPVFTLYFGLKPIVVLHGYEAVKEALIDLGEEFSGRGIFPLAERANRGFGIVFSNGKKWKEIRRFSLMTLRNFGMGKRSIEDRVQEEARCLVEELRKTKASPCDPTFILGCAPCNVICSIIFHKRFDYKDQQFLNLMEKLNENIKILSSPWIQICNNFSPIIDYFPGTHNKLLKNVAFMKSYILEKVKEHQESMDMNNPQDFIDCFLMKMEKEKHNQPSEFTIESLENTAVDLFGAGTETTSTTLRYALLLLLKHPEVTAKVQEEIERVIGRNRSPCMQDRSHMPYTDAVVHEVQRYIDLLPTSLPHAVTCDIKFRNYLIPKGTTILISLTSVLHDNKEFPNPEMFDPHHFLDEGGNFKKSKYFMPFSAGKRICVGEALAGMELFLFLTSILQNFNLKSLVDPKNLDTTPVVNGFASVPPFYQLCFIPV
Description: as §1, §2, §3
To a glass tube on ice were added sequentially: 0.5 M KH2PO4 (pH 7.4, 2.4 mL), water (8.988 mL), CYP2C9 (600 μL of 1 picomol/microliter), and dibenzylfluorescein (2 mM in 100% acetonitrile, 12 microliter).
Solution A was transferred to a 96-well black plate (80 microliter per well), followed by various concentrations of a solution of Compound in 10% acetonitrile-water (20 microliter per well). The reaction was initiated by adding 100 microliter of solution B to each well of the 96-well plate. The plate was incubated for 40 minutes at 37° C. in the dark. The reaction was stopped by adding 75 microliters of stop buffer (2 N NaOH) to each well, and incubating at 37° C. for 2 hours. The end point was measured in a fluorometer plate reader at λex=485 nm and λem=538 nm.

CYP3A4, sequence (P08684 whole entry): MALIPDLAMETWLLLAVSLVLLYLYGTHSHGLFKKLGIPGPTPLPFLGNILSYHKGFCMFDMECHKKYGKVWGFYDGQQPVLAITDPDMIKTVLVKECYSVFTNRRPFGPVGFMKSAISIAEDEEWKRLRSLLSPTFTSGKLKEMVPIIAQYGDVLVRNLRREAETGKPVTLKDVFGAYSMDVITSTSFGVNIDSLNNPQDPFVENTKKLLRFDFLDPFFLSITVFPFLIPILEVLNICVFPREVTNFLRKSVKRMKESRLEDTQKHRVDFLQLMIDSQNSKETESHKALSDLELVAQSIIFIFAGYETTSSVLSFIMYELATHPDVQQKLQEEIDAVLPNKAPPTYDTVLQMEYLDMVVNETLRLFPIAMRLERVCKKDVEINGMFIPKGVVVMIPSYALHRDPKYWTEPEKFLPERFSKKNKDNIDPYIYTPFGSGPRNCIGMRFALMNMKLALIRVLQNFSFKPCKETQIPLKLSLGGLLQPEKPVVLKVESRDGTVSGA

times the amount of deuterated compound to inhibit CYP3A4 as compared to the non-isotopically enriched drug (CYP3A4) [times] | IC50 (CYP2C9) [nM] | times the amount of deuterated compound to inhibit CYP2C9 as compared to the non-isotopically enriched drug (CYP2C9; human, 40 min, pH 7.4) [times] | Compound
2.3 | 320 | 3.2 | [2H]C1([2H])Oc2cc(C)c(CC(=O)c3sccc3S(=O)(=O)Nc3onc(C)c3Cl)cc2O1 [Example 2, d2-2-[2-(6-Methyl-benzo[1,3]dioxol-5-yl)-acetyl]-thiophene-3-sulfonic acid (4-chloro-3-methyl-isoxazol-5-yl)-amide]
 | 100 |  | Cc1cc2c(cc1CC(=O)c1sccc1S(=O)(=O)Nc1onc(C)c1Cl)OCO2 [sixtaxsentan, 2-[2-(6-Methyl-benzo[1,3]dioxol-5-yl)-acetyl]-thiophene-3-sulfonic acid (4-chloro-3-methyl-isoxazol-5-yl)-amide, reference compound]

Reference: US7863308B2, “Substituted thiophenes” (Auspex Pharmaceuticals, Inc., priority 2007, dated 2011)
